Results from PMC3777193, “Diaryl- and triaryl-pyrrole derivatives: inhibitors of the MDM2–p53 and MDMX–p53 protein–protein interactions” (Medchemcomm, 2013).
Read-outs that look alike come from different tables or passages of the source.

Legend:
MDM2–p53 = MDM2–p53 (Homo sapiens, UniProt Q00987); assay: MDM2–p53 ELISA protein–protein binding assay
SJSA-1 = assay: Growth inhibitory activity, SJSA-1; details: Homo sapiens, SJSA-1, read-out: GI50 SJSA-1
Description: (§2) Growth inhibitory activity was determined for selected pyrroles in a panel of cell lines with defined MDM2, MDMX and p53 status (Table 5).

A2780CP70 cells = assay type: cell-based; details: A2780 CP70 (p53 mutant), 0.1, 0.2 and 5 μM, 4 h
HCT116 p53(-/-) = assay: Growth inhibitory activity, HCT116 p53(-/-) (Table S3); assay type: cell-based; details: Homo sapiens, HCT-116, read-out: GI50 HCT116 p53(-/-)
Description: (§1) (2 pictures or pasted objects on this page, not shown here)

A2780-CP70 = assay: Growth inhibitory activity, A2780-CP70 (Table S3); assay type: cell-based; details: A2780/CP70, read-out: GI50 A2780-CP70
Description: as §1

SJSA-1 cells = assay type: cell-based; details: SJSA-1 (MDM2 amplified, p53wt), 5 μM, 4 h
[1] = Growth inhibitory activity, A2708 (Table S3); assay type: cell-based; details: read-out: GI50 A2708
Description: as §1

HCT116 = assay: Growth inhibitory activity, HCT116 (Table S3); assay type: cell-based; details: Homo sapiens, HCT-116, read-out: GI50 HCT116
Description: as §1

A2780 cells = assay type: cell-based; details: A2780 (p53wt), 0.1, 0.2 and 5 μM, 4 h
MDMX–p53 = target: T1, MDMX–p53 (Homo sapiens, UniProt O15151); assay: MDMX–p53 ELISA binding assay; details: read-out: MDMX IC50
T1 construct: host or cells: in vitro coupled T7 transcription and rabbit reticulocyte lysate translation
T1 sequence (O15151 1-490): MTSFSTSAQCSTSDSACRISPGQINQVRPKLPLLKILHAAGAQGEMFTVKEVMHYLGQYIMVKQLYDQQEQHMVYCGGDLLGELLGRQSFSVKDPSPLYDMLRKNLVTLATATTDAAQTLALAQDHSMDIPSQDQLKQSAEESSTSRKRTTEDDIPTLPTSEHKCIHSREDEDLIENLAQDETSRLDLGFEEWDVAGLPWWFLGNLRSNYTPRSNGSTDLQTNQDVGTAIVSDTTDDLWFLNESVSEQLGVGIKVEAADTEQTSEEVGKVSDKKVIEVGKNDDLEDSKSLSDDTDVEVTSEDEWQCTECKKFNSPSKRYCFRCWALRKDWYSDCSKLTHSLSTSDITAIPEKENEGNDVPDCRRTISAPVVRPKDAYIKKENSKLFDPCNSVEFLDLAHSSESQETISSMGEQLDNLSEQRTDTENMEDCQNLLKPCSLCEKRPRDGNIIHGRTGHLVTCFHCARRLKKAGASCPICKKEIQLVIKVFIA

MRK-NU-1 = assay: Growth inhibitory activity, MRK-NU-1; details: Homo sapiens, MRK-nu-1, read-out: GI50 MRK-NU-1
Description: as §2

SN40R2 = assay: Growth inhibitory activity, SN40R2; details: read-out: GI50 SN40R2
Description: as §2

MDM2–p53, sequence (Q00987 whole entry): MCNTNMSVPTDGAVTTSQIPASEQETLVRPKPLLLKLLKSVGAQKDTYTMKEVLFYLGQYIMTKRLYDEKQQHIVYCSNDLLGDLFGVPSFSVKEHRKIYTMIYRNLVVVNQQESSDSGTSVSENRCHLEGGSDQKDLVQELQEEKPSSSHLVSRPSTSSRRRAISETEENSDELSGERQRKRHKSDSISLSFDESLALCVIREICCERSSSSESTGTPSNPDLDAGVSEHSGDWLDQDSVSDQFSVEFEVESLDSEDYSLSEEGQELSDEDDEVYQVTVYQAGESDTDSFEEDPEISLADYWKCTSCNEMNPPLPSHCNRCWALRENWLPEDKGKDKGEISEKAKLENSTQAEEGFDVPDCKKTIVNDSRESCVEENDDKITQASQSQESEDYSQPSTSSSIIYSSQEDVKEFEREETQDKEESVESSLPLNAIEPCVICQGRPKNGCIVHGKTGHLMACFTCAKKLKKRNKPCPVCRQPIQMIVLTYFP

Cc1cc(C=C2C(=O)NC(=S)NC2=O)c(C)n1-c1sc2c(c1C#N)CCCC2 [Compound 3, 2-(3-((4,6-dioxo-2-thioxotetrahydropyrimidin-5(2H)-ylidene)methyl)-2,5-dimethyl-1H-pyrrol-1-yl)-4,5,6,7-tetrahydrobenzo[b]thiophene-3-carbonitrile]
IC50 (MDM2–p53): 12.3 µM
GI50 (SJSA-1): 4.4 ± 0.1 µM
induction of MDM2, p53, and p21 (Western blot) (A2780CP70 cells): no induction
GI50 (HCT116 p53(-/-)): 7.7 ± 0.1 µM
GI50 (A2780-CP70): 3.9 ± 0.1 µM
induction of MDM2, p53, and p21 (Western blot) (SJSA-1 cells): clearly visible
GI50 [1]: 3.9 ± 0.1 µM
GI50 (HCT116): 7.8 ± 0.2 µM

Cc1cc(C=C2C(=O)NC(=S)NC2=O)c(C)n1-c1ccc(Cl)cc1 [Compound 4a]
IC50 (MDM2–p53; read-out: MDM2 IC50): 0.72 ± 0.1 µM
GI50 (SJSA-1): 3.3 ± 0.1 µM
GI50 (HCT116 p53(-/-)): 8.3 ± 0.4 µM
GI50 (A2780-CP70): 4.4 ± 0.2 µM
GI50 [1]: 3.4 ± 0.2 µM
GI50 (HCT116): 8.4 ± 0.5 µM

Cc1cc(/C=C2\C(=O)NC(=S)N(c3ccccc3)C2=O)c(C)n1-c1ccc(Cl)cc1 [Compound 4b]
IC50 (MDM2–p53; read-out: MDM2 IC50): 3.3 ± 0.7 µM
GI50 (SJSA-1): 7.6 ± 0.1 µM
GI50 (HCT116 p53(-/-)): 9.9 ± 0.1 µM
GI50 (A2780-CP70): 9.5 ± 0.1 µM
GI50 [1]: 8.4 ± 0.2 µM
GI50 (HCT116): 9.5 ± 0.3 µM

O=C1NC(=S)N(c2ccccc2)C(=O)/C1=C/c1cc(-c2ccccc2)n(-c2ccc(Cl)cc2)c1-c1ccccc1 [Compound 4d]
fold more potent than the comparable 2,5-dimethyl analogues (4a, 4b) (MDM2–p53): 5–10 fold
IC50 (MDM2–p53; read-out: MDM2 IC50): 0.23 ± 0.044 µM
induction of MDM2, p53, and p21 (Western blot) (A2780CP70 cells): no induction
induction of MDM2 and p21 (Western blot) (A2780 cells): observed
induction of MDM2, p53, and p21 (Western blot) (SJSA-1 cells): clearly visible

O=C1NC(=S)N(c2cccc(Cl)c2)C(=O)/C1=C/c1cc(-c2ccccc2)n(-c2ccc(Cl)cc2)c1-c1ccccc1 [Compound 4e]
IC50 (MDM2–p53; read-out: MDM2 IC50): 0.163 ± 0.017 µM

Cc1ccc(N2C(=O)/C(=C\c3cc(-c4ccccc4)n(-c4ccc(Cl)cc4)c3-c3ccccc3)C(=O)N(c3ccccc3)C2=S)cc1C [Compound 4f]
IC50 (MDM2–p53; read-out: MDM2-p53 IC50): 0.26 ± 0.04 µM
IC50 (MDM2–p53; read-out: MDM2 IC50): 0.256 ± 0.039 µM

CN1C(=O)C(=Cc2cc(-c3ccccc3)n(-c3ccc(Cl)cc3)c2-c2ccccc2)C(=O)N(C)C1=S [Compound 4g]
MDM2-p53 IC50 (MDM2–p53): Insol.
MDM2 IC50 (MDM2–p53): Insol.

Cc1cc(C=C2C(=O)N(c3ccccc3)C(=S)N(c3ccccc3)C2=O)c(C)n1-c1ccc(Br)cc1 [Compound 4h]
IC50 (MDM2–p53; read-out: MDM2 IC50): 0.199 ± 0.016 µM

Cc1ccc(-n2c(C)cc(/C=C3\C(=O)NC(=S)N(c4ccccc4)C3=O)c2C)cc1 [Compound 4i]
IC50 (MDM2–p53; read-out: MDM2 IC50): 8.4 ± 0.9 µM
GI50 (SJSA-1): 7.1 ± 0.1 µM
GI50 (HCT116 p53(-/-)): 9.7 ± 0.2 µM
GI50 (A2780-CP70): 9 ± 0.4 µM
GI50 [1]: 7.5 ± 0.1 µM
GI50 (HCT116): 9.5 ± 0.3 µM

Cc1ccc(-n2c(C)cc(C=C3C(=O)NC(=S)NC3=O)c2C)cc1 [Compound 4j]
IC50 (MDM2–p53; read-out: MDM2 IC50): 4.7 ± 0.2 µM

CCOC(=O)c1ccc(-n2c(-c3ccccc3)cc(C=C3C(=O)NC(=S)NC3=O)c2-c2ccccc2)cc1 [Compound 4k]
IC50 (MDM2–p53; read-out: MDM2 IC50): 0.7 ± 0.02 µM

O=C1NC(=O)C(=Cc2cc(-c3ccccc3)n(-c3ccc(Cl)cc3)c2-c2ccccc2)C(=O)N1 [Compound 4m]
IC50 (MDM2–p53; read-out: MDM2 IC50): 0.3 ± 0.03 µM

O=C1NC(=O)C(=Cc2cc(-c3ccccc3)n(-c3ccc(Br)cc3)c2-c2ccccc2)C(=O)N1 [Compound 4n]
IC50 (MDM2–p53; read-out: MDM2 IC50): 0.18 ± 0.07 µM

COc1ccc(-n2c(-c3ccccc3)cc(C=C3C(=O)NC(=O)NC3=O)c2-c2ccccc2)cc1 [Compound 4o]
IC50 (MDM2–p53; read-out: MDM2 IC50): 1.9 ± 0.3 µM
IC50 (MDMX–p53): 13 ± 7 µM

CC(C)(C)c1ccc(-n2c(-c3ccccc3)cc(C=C3C(=O)NC(=O)NC3=O)c2-c2ccccc2)cc1 [Compound 4p]
IC50 (MDM2–p53; read-out: MDM2 IC50): 1.9 ± 0.3 µM

N#Cc1ccc(-n2c(-c3ccccc3)cc(C=C3C(=O)NC(=O)NC3=O)c2-c2ccccc2)cc1 [Compound 4q]
IC50 (MDM2–p53; read-out: MDM2 IC50): 4.7 ± 1.9 µM
IC50 (MDMX–p53): 7 ± 3 µM

N#Cc1ccc(-n2c(-c3ccccc3)cc(C=C3C(=O)NC(=S)NC3=O)c2-c2ccccc2)cc1 [Compound 4r]
GI50 (MRK-NU-1): 6.1 ± 0.7 µM
IC50 (MDM2–p53; read-out: MDM2 IC50): 0.2 ± 0.07 µM
GI50 (SJSA-1): 5.1 ± 0.9 µM
IC50 (MDMX–p53): 0.9 ± 0.42 µM
GI50 (SN40R2): 5.9 ± 0.3 µM

O=C1NC(=O)C(=Cc2cc(-c3ccccc3)n(-c3ccc([N+](=O)[O-])cc3)c2-c2ccccc2)C(=O)N1 [Compound 4s, 5-((1-(4-nitrophenyl)-2,5-diphenyl-1H-pyrrol-3-yl)methylene)pyrimidine-2,4,6(1H,3H,5H)-trione]
IC50 (MDM2–p53; read-out: MDM2 IC50): 0.15 ± 0.06 µM
IC50 (MDMX–p53): 0.68 ± 0.18 µM

O=C1NC(=S)NC(=O)C1=Cc1cc(-c2ccccc2)n(-c2ccc([N+](=O)[O-])cc2)c1-c1ccccc1 [Compound 4t]
GI50 (MRK-NU-1): 4.9 ± 0.6 µM
IC50 (MDM2–p53; read-out: MDM2 IC50): 0.17 ± 0.09 µM
GI50 (SJSA-1): 4.7 ± 1 µM
IC50 (MDMX–p53): 0.63 ± 0.12 µM
GI50 (SN40R2): 5.2 ± 0.4 µM
